Tested on: KRAS G13D mutant human colorectal adenocarcinoma epithelial cells DLD-1
Experiment: 3D cell proliferation inhibition assay, DLD-1
Format: cell-based
Details: DLD-1, 168 h, 7 days, CTG
Excerpt: Test Example 4: 3D Cell Proliferation Inhibition Assay
The inhibitory effect of the compounds on the proliferation of 3D cells was investigated on KRAS G12C mutant human non-small cell lung cancer cells NCI-H358 (ATCC or Stem Cell Bank, Chinese Academy of Sciences), KRAS G12D mutant human metastatic pancreatic adenocarcinoma cells AsPC-1 (ATCC), KRAS G12V mutant human lung adenocarcinoma cells NCI-H441 (ATCC), and KRAS G13D mutant human colorectal adenocarcinoma epithelial cells DLD-1 (ATCC). The specific procedures were as follows:
200 nL of compound solution diluted in a gradient was added to corresponding microwells of a 384-well low-adsorption microwell plate (Corning, 3657) using an Echo sonic pipetting system (Labcyte, Echo 550), so that the final concentration of the test compound in the reaction system was in a range of 20000 nM-0.008 nM. Then 40 μL of cells at a certain density were added to the corresponding microplate. In addition to test wells for the test compounds, both a DMSO control well and a medium control well were set, with the DMSO control well containing DMSO and cells and the medium well containing only medium. […] The plate was incubated at room temperature for 30 min and read on a microplate reader EnVision using the chemiluminescence program. […]

IC50 [nM] | SMILES
30 to 50 | COc1cc2nc(C)nc(N[C@H](C)c3cc(-c4c(Cl)cccc4CN(C)C)cs3)c2cc1[C@H]1CC[C@H](C(=O)N2CCN(CC3CCC4(CC3)CCN(C(=O)c3ccc(Cl)c(N5CCC(=O)NC5=O)c3)CC4)CC2)CC1 [Example 1, 1-(2-chloro-5-(9-((4-((1R,4R)-4-(4-(((R)-1-(4-(2-chloro-6-((dimethylamino)methyl)phenyl)thien-2-yl)ethyl)amino)-7-methoxy-2-methylquinazolin-6-yl)cyclohexane-1-carbonyl)piperazin-1-yl)methyl)-3-azaspiro[5.5]undecane-3-carbonyl)phenyl)dihydropyrimidine-2,4(1H,3H)-dione]
50 to 100 | COc1cc2nc(C)nc(N[C@H](C)c3cc(-c4c(Cl)cccc4CN(C)C)cs3)c2cc1[C@H]1CC[C@H](C(=O)N2CCC(CCOCC3CCN(C(=O)c4ccc(Cl)c(N5CCC(=O)NC5=O)c4)CC3)CC2)CC1 [Example 5, 1-(2-chloro-5-(4-((2-(1-((1R,4R)-4-(4-(((R)-1-(4-(2-chloro-6-((dimethylamino)methyl)phenyl)thien-2-yl)ethyl)amino)-7-methoxy-2-methylquinazolin-6-yl)cyclohexane-1-carbonyl)piperidin-4-yl)ethoxy)methyl)piperidine-1-carbonyl)phenyl)dihydropyrimidine-2,4(1H,3H)-dione]
